Data: US20220088056A1, “COMBINATION FOR TREATING CANCER” (NITTO DENKO CORPORATION, priority 2018, published 2022)

Key:
[1] = system: human normal dermal fibroblasts NHDF-Ad-Der Fibroblasts; test: Influence on proliferation of normal cells, live and dead cell count with Hoechst 33342 / propidium iodide (Example 5); assay type: cell-based; details: 1.1+1.1 pmol, day 4 after transfection, compared with control (Compound C and Compound I), FIG. 5
Experimental: A combination of a BcL-XL inhibitor and a miR-345-related molecule was tested for the presence or absence of its influence on the proliferation of normal cells.
The BcL-XL inhibitor used was Compound A, and the miR-345-related molecule used was Compound B. Compound C was used as a negative control of the BcL-XL inhibitor, and Compound I was used as a negative control of the miR-345-related molecule.
The normal cells used were human normal dermal fibroblasts NHDF-Ad-Der Fibroblasts (Lonza Group AG, #CC-2511). The cells were cultured in Fibroblast Basal Medium (FBM™, Lonza Group AG, #CC-3131) containing FGM™-2 SingleQuots™ (Lonza Group AG, #CC-4126) under conditions of 37° C. and 5% CO2.
Transfection with the BcL-XL inhibitor and/or the miR-345-related molecule was performed as follows: on the day before transfection, NHDF was seeded at 0.15×10^4 cells/well to a 96-well tissue culture plastic dish. […] Live and dead cell numbers were counted using Celigo® Image Cytometer (Nexcelom Bioscience, LLC, #Celigo-106-0448) in which the number of cells stained with Hoechst 33342 was regarded as the total of the live and dead cell numbers and the number of cells stained with propidium iodide was regarded as the dead cell number.

[2] = system: hsa-miR-345-overexpressing HCT116 cells or control HCT116 cells; test: Cell number counting in hsa-miR-345-overexpressing versus control HCT116 cells after transfection with BcL-XL inhibitor (Example 3); assay type: cell-based; details: 25 pmol; hsa-miR-345-overexpressing vs hsa-miR-345 wild-type HCT116 line; days 1 and 4 after transfection; FIG. 3
Experimental: The anticancer activity of a BcL-XL inhibitor was evaluated in cancer cells in which miR-345 was overexpressed by a miR-345-related molecule.
The miR-345-related molecule used was Expression plasmid for human microRNA MIR345 (MI0000825, OriGene Technologies, Inc., Compound F).
A cell line overexpressing miR-345 was established by introducing Compound E to hsa-miR-345 wild-type HCT116 cells using Lipofectamine 3000 (Invitrogen Corp.), and picking up a single clone by drug selection. In the experiment, a clone was used which was confirmed to have the increased expression of hsa-miR-345-5p by qPCR. A hsa-miR-345 wild-type HCT116 cell line as a control was established by introducing Expression plasmid pCMV-MIR Vector (PCMVMIR, OriGene Technologies, Inc., Compound G) to hsa-miR-345 wild-type HCT116 cells using Lipofectamine 3000 (Invitrogen Corp.), and picking up a single clone by drug selection.
Transfection with Compound A was performed as follows: on the day before transfection, the hsa-miR-345-overexpressing HCT116 cells or the control HCT116 cells were seeded at 0.1×10^5 cells/well to a 6-well tissue culture plastic dish. 25 pmol of Compound A was added into 250 μL of Opti-MEM I Reduced Serum Medium (Invitrogen Corp.) and gently mixed. […] On days 1 and 4 after the transfection, the cell number was counted. […]

With “Compound A: BcL-XL inhibitor: siRNA, sense 5'-GGUAUUGGUGAGUCGGAUCtt-3' (SEQ ID NO: 4), antisense 5'-GAUCCGACUCACCAAUACCtt-3' (SEQ ID NO: 5) (sense GGUAUUGGUGAGUCGGAUCTT; antisense GAUCCGACUCACCAAUACCTT; chemistry not given here)” the “suppression of the proliferation of normal cells” value [1] was “neither the BcL-XL inhibitor alone or the miR-345-related molecule alone nor their concurrent use suppressed the proliferation of normal cells” and the “cell proliferation-suppressing effect (cell number)” value [2] was “appeared more strongly in the hsa-miR-345-overexpressing line than in the hsa-miR-345 wild-type line”.
